The test system of assay [1] is Trichostrongylus colubriformis. Description: In vivo nematode test, Trichostrongylus colubriformis / sheep (faecal egg count before and after treatment). Also noted: species or system Schaf. The settings on record: experimentally infected sheep, treated after the prepatent period, pure active ingredient in gelatine capsules, oral, dose giving complete cessation of egg excretion, read-out: Dosis effectiva. An excerpt: Trichostrongylus colubriformis / Schaf
Experimentell mit Trichostrongylus colubriformis infizierte Schafe wurden nach Ablauf der Präpatenzzeit des Parasiten behandelt. Die Wirkstoffe wurden als reiner Wirkstoff in Gelatinekapseln oral appliziert.
Der Wirkungsgrad wird dadurch bestimmt, daß man die mit dem Kot ausgeschiedenen Wurmeier vor und nach der Behandlung quantitativ auszählt.
(§1) Ein völliges Sistieren der Eiausscheidung nach der Behandlung bedeutet, daß die Würmer abgetrieben wurden oder so geschädigt sind, daß sie keine Eier mehr produzieren (Dosis effectiva).
Geprüfte Wirkstoffe und wirksame Dosierungen (Dosis effectiva) sind aus der nachfolgenden Tabelle ersichtlich.

The test system of the next assay is Haemonchus contortus. The experiment in a line: In vivo nematode test, Haemonchus contortus / sheep (faecal count before and after treatment). The settings on record: experimentally infected sheep, treated after the prepatent period, pure active ingredient in gelatine capsules, oral, dose giving complete cessation of egg excretion, read-out: Dosis effectiva. Also noted: species or system Schaf.
Description: Haemonchus contortus / Schaf
Experimentell mit Haemonchus contortus infizierte Schafe wurden nach Ablauf der Präpatenzzeit des Parasiten behandelt. Die Wirkstoffe wurden als reiner Wirkstoff in Gelatinekapseln oral appliziert.
Der Wirkungsgrad wird dadurch bestimmt, daß man die mit dem Kot ausgeschiedenen […] vor und nach der Behandlung quantitativ auszählt.
as §1
Geprüfte Wirkstoffe und wirksame Dosierungen (Dosis effectiva) sind aus der nachfolgenden Tabelle ersichtlich: […]

Turning to `COC1=NOC[C@H]1NC(=O)c1ccccc1C(=O)O` [Beispiel 1, (R)-N-(4,5-Dihydro-3-methoxy-4-isoazolyl)-phthalamidsäure], the minimal effective dose in assay [1] was 25 mg/kg; in the assay with Haemonchus contortus it was 10 mg/kg.
For `O=C(O)c1ccccc1C(=O)N[C@@H]1CON=C1OCc1cccc(Cl)c1` [Beispiel 2, (R)-N-[4-5-Dihydro-3-(-3-chlorphenyl)-methoxy-4-isoxazolyl]-phthalamidsäure], in that order: 25 mg/kg and 10 mg/kg.
Consider `CC(C)OC1=NOCC1NC(=O)c1ccccc1C(=O)O` (stereo not drawn) [Beispiel 3], for which the minimal effective dose in assay [1] is 25 mg/kg; in the assay with Haemonchus contortus, 10 mg/kg.

For the origin of these results see patent publication EP0483631A1, “3-Oxy substituted isoxazolines, process for their preparation and their utilization against Endoparasites” (BAYER AG, priority 1990, dated 1992).
